Read-outs that look alike come from different tables or passages of the source.
Experiments:
HDAC2 = HDAC2 (Homo sapiens, UniProt Q92769); test: HDAC biochemical activity measurement (fluorescent substrate deacetylation);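 note: HDAC2 enzyme with an acetyl-lysine fluorescent substrate, then developer added, fluorescence read at excitation 360 nm and emission 460 nm, inhibition measured across several compound concentrations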; details: 37° C. 30 minutes
HDAC1 = HDAC1 (Homo sapiens, UniProt Q13547); test: as above; details: HDAC1; 37° C. 30 minutes; read-out: IC50 HDAC1;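 note: fluorogenic acetyl-lysine substrate (20 µM) deacetylated by HDAC1, then developer releases fluorophore read at 360 nm excitation and 460 nm emission, inhibitor incubated 30 min at 37 °C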
HDAC3 = HDAC3 (Homo sapiens, UniProt O15379); test: as above;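 note: fluorogenic acetyl-lysine substrate (20 µM) deacetylated by HDAC3, then developer added for 15 min at room temperature, release of fluorophore read at excitation 360 nm, emission 460 nm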
[1] = test system: BGC-823 (human gastric cancer cells); test: MTT cancer cell growth inhibition; type: cell-based; details: Homo sapiens, BGC-823, 72 h, MTT, 72 hours incubation, read-out: GI50 BG
How it was run: (§1)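 MTT viability, 570 nm, GI50. Cells 1500/well; compound 72 h at final 10^−5–10^−10 M in triplicate.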

[2] = test system: Huh-7 (human hepatoma cells); test: MTT cancer cell growth inhibition; type: cell-based; details: Homo sapiens, Huh-7, 72 h, MTT, 72 hours incubation, Huh-7 cells; read-out: GI50 Huh-7
How it was run: as §1

[3] = test system: SGC-7901 (human gastric cancer cells); test: MTT cancer cell growth inhibition; type: cell-based; details: Homo sapiens, SGC-7901, 72 h, MTT, 72 hours incubation, SGC-7901 cells; read-out: GI50 SGC-7901
How it was run: as §1

[4] = test system: DU145 (human prostate cancer cells); test: MTT cancer cell growth inhibition; type: cell-based; details: Homo sapiens, DU-145, 72 h, MTT, 72 hours incubation, read-out: GI50 Du1
How it was run: as §1

[5] = test system: K562 (human leukemia cells); test: MTT cancer cell growth inhibition; type: cell-based; details: Homo sapiens, K562, 72 h, MTT, 72 hours incubation, K562 cells; read-out: GI50 K562
How it was run: as §1

[6] = test system: Hela (human cervical cancer cells); test: MTT cancer cell growth inhibition; type: cell-based; details: Homo sapiens, HeLa, 72 h, MTT, 72 hours incubation, read-out: GI50 Hela
How it was run: as §1

[7] = test system: lncap (prostate cancer cells); test: MTT cancer cell growth inhibition; type: cell-based; details: Homo sapiens, LNCaP, 72 h, MTT, 72 hours incubation, read-out: GI50 lnca
How it was run: as §1

[8] = test system: MOLT-4 (human acute lymphoblastic leukemia cells); test: MTT cancer cell growth inhibition; type: cell-based; details: Homo sapiens, MOLT-4, 72 h, MTT, 72 hours incubation, read-out: GI50 Mol
How it was run: as §1

[9] = test system: H1975 (non-small cell lung adenocarcinoma); test: MTT cancer cell growth inhibition; type: cell-based; details: Homo sapiens, NCI-H1975, 72 h, MTT, 72 hours incubation, H1975 cells; read-out: GI50 H1975
How it was run: as §1

[10] = test system: N-87 (human gastric cancer cells); test: MTT cancer cell growth inhibition; type: cell-based; details: Homo sapiens, 72 h, MTT, 72 hours incubation, N-87 cells; read-out: GI50 N-87
How it was run: as §1

[11] = test system: U937 (human leukemia cells); test: MTT cancer cell growth inhibition; type: cell-based; details: Homo sapiens, U-937, 72 h, MTT, 72 hours incubation, read-out: GI50 U93
How it was run: as §1

[12] = test system: A549 (human lung cancer cells); test: MTT cancer cell growth inhibition; type: cell-based; details: Homo sapiens, A549, 72 h, MTT, 72 hours incubation, read-out: GI50 A54
How it was run: as §1

[13] = test system: MDA-MB-231 (breast cancer cells); test: MTT cancer cell growth inhibition; type: cell-based; details: Homo sapiens, MDA-MB-231, 72 h, read-out: GI50 MDA-MB-231, MTT, 72 hours incubation, MDA-MB-231 cells
How it was run: as §1

[14] = test system: KBM5-T315I (human chronic myelogenous leukemia); test: MTT cancer cell growth inhibition; type: cell-based; details: Homo sapiens, 72 h, MTT, 72 hours incubation, KBM5-T315I cells; read-out: GI50 KBM5-T315I
How it was run: as §1

[15] = test system: Bel-7402 (human hepatoma cells); test: MTT cancer cell growth inhibition; type: cell-based; details: Homo sapiens, Bel-7402, 72 h, MTT, 72 hours incubation, Bel-7402 cells; read-out: GI50 Bel-7402
How it was run: as §1

[16] = test system: PANC-1 (Pac-1, human pancreatic cancer cells); test: MTT cancer cell growth inhibition; type: cell-based; details: Homo sapiens, PANC-1, 72 h, MTT, 72 hours incubation, read-out: GI50 PAN
How it was run: as §1

[17] = test system: KBM-5 (human chronic myelogenous leukemia); test: MTT cancer cell growth inhibition; type: cell-based; details: Homo sapiens, KBM5, 72 h, MTT, 72 hours incubation, KBM-5 cells; read-out: GI50 KBM-5
How it was run: as §1

[18] = test system: HT1080 (human fibrosarcoma cells); test: MTT cancer cell growth inhibition; type: cell-based; details: Homo sapiens, HT-1080, 72 h, MTT, 72 hours incubation, read-out: GI50 HT1
How it was run: as §1

[19] = test system: MCF-7 (human breast cancer cells); test: MTT cancer cell growth inhibition; type: cell-based; details: Homo sapiens, MCF7, 72 h, 72 hours incubation, read-out: GI50 MCF
How it was run: as §1

[20] = test system: HCC827 (human non-small cell lung cancer cells); test: MTT cancer cell growth inhibition; type: cell-based; details: Homo sapiens, HCC827, 72 h, MTT, 72 hours incubation, HCC827 cells; read-out: GI50 HCC827
How it was run: as §1

Chain of HDAC3 (O15379 whole entry, species assumed): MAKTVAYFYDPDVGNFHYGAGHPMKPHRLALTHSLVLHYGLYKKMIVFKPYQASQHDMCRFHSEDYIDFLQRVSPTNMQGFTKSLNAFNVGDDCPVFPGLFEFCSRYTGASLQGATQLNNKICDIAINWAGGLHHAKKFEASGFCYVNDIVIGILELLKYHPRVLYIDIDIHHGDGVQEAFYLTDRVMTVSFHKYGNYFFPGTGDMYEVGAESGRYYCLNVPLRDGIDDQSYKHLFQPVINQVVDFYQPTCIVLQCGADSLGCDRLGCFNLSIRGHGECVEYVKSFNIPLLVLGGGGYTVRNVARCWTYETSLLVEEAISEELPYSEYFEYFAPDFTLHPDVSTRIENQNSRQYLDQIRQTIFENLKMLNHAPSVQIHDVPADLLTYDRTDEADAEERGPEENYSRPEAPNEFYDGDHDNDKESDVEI
Chain of HDAC3 (Q9Y618 395-489 partner limits assumed, species assumed): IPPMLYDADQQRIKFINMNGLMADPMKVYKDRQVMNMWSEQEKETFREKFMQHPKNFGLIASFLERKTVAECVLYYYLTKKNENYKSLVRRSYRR
Chain of HDAC1 (Q13547 whole entry, species assumed): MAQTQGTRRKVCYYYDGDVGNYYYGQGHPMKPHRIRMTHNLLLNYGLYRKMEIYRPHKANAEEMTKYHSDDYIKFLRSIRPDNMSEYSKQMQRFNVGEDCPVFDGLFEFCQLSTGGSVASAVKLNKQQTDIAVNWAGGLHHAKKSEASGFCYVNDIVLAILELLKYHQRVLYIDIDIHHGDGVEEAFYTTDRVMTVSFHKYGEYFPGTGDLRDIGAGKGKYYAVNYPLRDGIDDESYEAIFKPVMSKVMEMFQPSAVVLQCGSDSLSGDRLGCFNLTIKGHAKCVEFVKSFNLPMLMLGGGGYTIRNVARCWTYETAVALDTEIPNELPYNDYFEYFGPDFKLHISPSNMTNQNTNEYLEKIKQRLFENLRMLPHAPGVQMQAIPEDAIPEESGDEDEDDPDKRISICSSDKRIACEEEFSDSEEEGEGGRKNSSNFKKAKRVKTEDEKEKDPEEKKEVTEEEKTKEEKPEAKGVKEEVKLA
Chain of HDAC2 (Q92769 whole entry, species assumed): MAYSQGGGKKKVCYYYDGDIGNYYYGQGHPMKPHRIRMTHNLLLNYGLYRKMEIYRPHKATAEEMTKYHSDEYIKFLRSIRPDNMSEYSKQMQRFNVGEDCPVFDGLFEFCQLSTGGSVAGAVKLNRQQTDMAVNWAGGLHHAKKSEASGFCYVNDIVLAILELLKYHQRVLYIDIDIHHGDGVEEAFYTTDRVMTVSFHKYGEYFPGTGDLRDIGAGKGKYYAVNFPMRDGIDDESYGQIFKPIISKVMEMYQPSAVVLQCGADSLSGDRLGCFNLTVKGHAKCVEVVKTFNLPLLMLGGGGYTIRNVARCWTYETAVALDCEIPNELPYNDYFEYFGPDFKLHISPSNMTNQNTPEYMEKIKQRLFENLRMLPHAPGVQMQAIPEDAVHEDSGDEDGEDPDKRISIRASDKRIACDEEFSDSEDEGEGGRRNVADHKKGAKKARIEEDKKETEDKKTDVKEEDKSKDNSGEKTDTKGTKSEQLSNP

| IC50 (HDAC2) [nM] | IC50 (HDAC1) [nM] | IC50 (HDAC3) [nM] | GI50 [1] [nM] | GI50 [2] [nM] | GI50 [3] [nM] | GI50 [4] [nM] | GI50 [5] [nM] | GI50 [6] [nM] | GI50 [7] [nM] | GI50 [8] [nM] | GI50 [9] [nM] | GI50 [10] [nM] | GI50 [11] [nM] | GI50 [12] [nM] | GI50 [13] [nM] | GI50 [14] [nM] | GI50 [15] [nM] | GI50 [17] [nM] | GI50 [20] [nM] | Compound | also measured |
| --- | --- | --- | --- | --- | --- | --- | --- | --- | --- | --- | --- | --- | --- | --- | --- | --- | --- | --- | --- | --- | --- |
| 29 | 51 | 34 | 50 | 29 | 35 | 60 | 63 | 70 | 20 | 20 | 51 | 55 | 50 | 30 | 29 | 28 | 84 | 73 | 84 | C/C=C1\NC(=O)c2ccc(F)c(n2)CNC(=O)C[C@@H](/C=C/CCSC(=O)CCCCCCC)OC(=O)[C@H](Cc2ccccc2)NC1=O [Example 71] | GI50 [16]: 80 nM; GI50 [18]: 80 nM; GI50 [19]: 20 nM |
| 54 | 93 | 61 | 5880 | 82 | 53 | 40 | 34 | 390 | 390 | 2060 | 41 | 39 | 120 | 1030 | 92 | 26 | 84 | 72 | 59 | C/C=C1\NC(=O)c2cccc(n2)NC(=O)C[C@@H](/C=C/CCSC(C)=O)OC(=O)[C@H](C(C)C)NC1=O [Example 22] | GI50 [16]: 4070 nM; GI50 [18]: 50 nM; GI50 [19]: 1110 nM |
| 52 | 72 | 16 | – | 61 | 62 | – | 37 | – | – | – | 44 | 55 | – | – | 35 | 47 | 46 | 51 | 29 | C/C=C1\NC(=O)c2cc(SC)cc(n2)CNC(=O)C[C@@H](/C=C/CCSC=O)OC(=O)[C@H](C(C)C)NC1=O [Compound 169] | GI50 ([1]; BGC-823 cells): 60 nM; GI50 ([4]; DU145 cells): 70 nM; GI50 ([6]; Hela cells): 20 nM; GI50 ([7]; lncap cells): 50 nM; GI50 ([8]; MOLT-4 cells): 40 nM; GI50 ([11]; U937 cells): 20 nM; GI50 ([12]; A549 cells): 40 nM; GI50 ([16]; PANC-1 cells): 40 nM; GI50 ([18]; HT1080 cells): 60 nM; GI50 ([19]; MCF-7 cells): 70 nM |
